Assays:
Type in all cases: cell-based
[1] = tested on: broad spectrum of microorganisms, including yeasts; experiment: Biocidal activity in a liquid biomass; details: weight of menadione/total weight of the biomass and of the compound
Saccharomyces cerevisiae = experiment: Growth of Saccharomyces cerevisiae strains in liquid biomass containing menadione
Oenococcus oeni = experiment: Pasteurized 30% glycerol solution inoculated with Oenococcus oeni; details: 48 hours at 25° C.; Penicillin 10 mg/l, emulsion A 20 mg/l, emulsion B 150 mg/l
Experimental: A 30% solution of glycerol is pasteurized at 65° C. for 30 minutes. After cooling, four 50-ml parts are formed, each of which receives the addition of 1 ml of inoculum (00) of Oenococcus oeni, so as to have a bacterial load of 1×10^5 ufc/l.
The first part is kept as a control; the second part receives the addition of 10 mg/l of Penicillin (Pen); the third part receives the addition of 20 mg/l of an emulsion A of menadione (composition: 50% menadione, 50% ethanol); the fourth part receives the addition of 150 mg/l of an emulsion B of menadione (composition: menadione 10%, ricinoleate 90%).

Lactobacillus fermentum = experiment: Bioethanol fermentation of 33% corn flour dispersion with Saccharomyces cerevisiae contaminated with Lactobacillus fermentum; details: for Ethanol / Glucose (residual, non-fermented) / Lactic acid: 72 hours at 32° C., Sc + Lf inoculum, Virg 2 ppm, MSB 20 ppm
Experimental: The capacity of menadione sodium bisulfite to contrast the negative effect of bacterial contamination on the production of bioethanol is tested by using a 33% aqueous dispersion of corn flour, which is a typical substrate used in the bioethanol industry.
Using this dispersion, four parts of 40 ml each are prepared and are placed in four separate flasks (procedure described by Bischoff K. M. et al. in Biotechnology and Bioengineering 2009, 103, 117-122).
Flask 1 (witness) receives the addition of 0.5 ml of inoculum (Sc) of Saccharomyces cerevisiae (1×10^7 ufc/ml). Flask 2 receives the addition of 0.5 ml of inoculum (Sc) of Saccharomyces and 0.5 ml of inoculum (Lf) of Lactobacillus fermentum (1×10^8 ufc/ml); flask 3 receives the addition of 0.5 ml of inoculum (Sc) of Saccharomyces, 0.5 ml of inoculum (Lf) of Lactobacillus fermentum and 0.5 ml of a solution of virginiamycin with such a titer as to have, in the flask, a concentration of antibiotic equal to 2 mg/l. Flask 4 receives the addition of 0.5 ml of inoculum (Sc) of Saccharomyces, 0.5 ml of inoculum (Lf) of Lactobacillus fermentum and 0.5 ml of a solution of menadione sodium bisulfite (1600 mg/l ) with such a titer as to have in the flask a concentration of MSB equal to 20 ppm by weight.
Then the four flasks are kept under bland agitation and at the temperature of 32° C. for 72 hours. At the end of the incubation period, the four parts are analyzed for their content of ethanol, glucose and lactic acid.

Lactobacillus plantarum = experiment: Pasteurized 20% molasses solution inoculated with Lactobacillus plantarum; details: 48 hours at 25° C., MSB 50 ppm, MSB-C 100 ppm; for Lactic acid / Ufc/l (bacterial load): virginiamycin 2 mg/l
Experimental: A 20% solution of molasses is pasteurized at 65° C. for 30 minutes. After cooling, five 50-ml parts are formed: of these, one is kept as a control and the remaining four each receive the addition of 1 ml of inoculum (Lp) of Lactobacillus plantarum (1×10^5 ufc/ml). The third part then receives the addition of 2 mg/l of virginiamycin, the fourth part receives the addition of 50 ppm of menadione sodium bisulfite, while the fifth part receives the addition of 100 ppm of a mixture of menadione sodium bisulfite and sodium bisulfite known as MSB-C (composition of mixture: 65% MSB and 35% sodium bisulfite).

Molecule | Concentration from which biocidal activity is exhibited [1] | Menadione concentration that allows growth of all the tested strains (Saccharomyces cerevisiae; liquid biomass) | Growth response of Saccharomyces cerevisiae (Saccharomyces cerevisiae; menadione concentration between 400 and 500 ppm) | Ufc/l (bacterial load) (Oenococcus oeni) | Ethanol (Lactobacillus fermentum) [g/L] | Glucose (residual, non-fermented) (Lactobacillus fermentum) [g/L] | Lactic acid (Lactobacillus fermentum) [g/L] | Lactic acid (Lactobacillus plantarum) [g/L] | Ufc/l (bacterial load) (Lactobacillus plantarum) | Effect on the bacterial inoculum (Lactobacillus fermentum; flask 4, MSB 20 ppm) | Effect on growth of the yeast (Lactobacillus fermentum; flask 4, MSB 20 ppm, Saccharomyces cerevisiae) | Effect on the bacterial inoculum (Lactobacillus plantarum)
CC1=CC(=O)c2ccccc2C1=O [menadione, 2-methylnaphthalene-1,4-dione] | at least 500 ppm | below 400 ppm | varies depending on the tested strains |  |  |  |  |  |  |  |  | 
Penicillin |  |  |  | <1 × 10^2 Ufc/l |  |  |  |  |  |  |  | 
virginiamycin [reference compound] |  |  |  |  | 108.2 | 6.4 | 0.4 | 0.15 | <1 × 10^2 Ufc/l |  |  | 
CC1(S(=O)(=O)[O-])CC(=O)c2ccccc2C1=O.[Na+] (centres unmarked) [MSB, menadione sodium bisulfite] |  |  |  |  | 111.3 | 6.2 | 0.5 | 0.40 | <1 × 10^3 Ufc/l | able to inhibit the bacterial inoculum | has not harmed the growth of the yeast | inhibiting completely the bacterial inoculum

From patent publication US20130052173A1, “USE OF MENADIONE AND DERIVATIVES THEREOF FOR TREATING BIOMASSES” (priority 2010, published 2013)
